Experimental data from PubChem BioAssay AID1159563 (GlaxoSmithKline (GSK), 2015).
pIC50: −log10 of the molar value. Active and inactive are the calls of the source. The rule behind the calls is not given here.

system: HepG2 cytotoxicity; experiment: HepG2 cell cytotoxicity, cytotoxicity control (AID 1159563)

| SMILES | IC50 | pIC50 |
| --- | --- | --- |
| c1ccc(CCNCc2cncc3nc(-c4cnccn4)n(C4CCCCC4)c23)cc1 | > 100 µM (inactive) | – |
| Cc1nc(-c2ccncc2)ncc1C(C)NC(=O)c1ccc(Cl)s1 (configuration not stated) | > 100 µM (inactive) | – |
| CC(C)Oc1cccc(N2CCC(C(=O)N3CCCN(C(C)C)CC3)CC2)c1 | > 100 µM (inactive) | – |
| O=C(Nc1nc(-c2ccccn2)cs1)N1C[C@H]2C[C@@]2(c2ccccc2)C1 | – | 4.60 |
| Cc1ccc(NC(C)C(=O)Nc2ccc(C#N)cc2)cc1S(=O)(=O)N1CCCCC1 (configuration not stated) | – | 4.10 |
| CC(=O)Nc1ccc(-c2noc(CC3CCCN(Cc4cccc(F)c4C)C3)n2)cc1 (configuration not stated) | > 100 µM (inactive) | – |
| O=C(c1cccc(Cl)c1Cl)N1CCn2c1nc(-c1ccncc1)cc2=O | > 100 µM (inactive) | – |
| CN(C)CCOc1ccc(N2CCN(S(=O)(=O)c3ccc(Cl)cc3)CC2)cc1 | – | 4.30 |
| c1ccc(-c2nc(NC3CCCC3)c3ccccc3n2)nc1 | – | 4.80 |
| O=C1COC(c2ccccc2)(c2ccccc2)CN1C1CCN(Cc2ccc(-n3ccnc3)cc2)CC1 | – | 4.30 |
| O=C(NCCc1ccn(-c2ccccc2)n1)C1CCCCC1 | > 100 µM (inactive) | – |
| Cn1nc(C(=O)N2CCc3ccccc32)c2c1CCS(=O)(=O)C2 | > 100 µM (inactive) | – |
| COc1cccc(Nc2cc(C)nc(-c3ccccn3)n2)c1 | – | 4.30 |
| CN(Cc1ccc(F)cc1)c1ccc(OCC(=O)N2CCCCC2c2cccnc2)nn1 (configuration not stated) | > 100 µM (inactive) | – |
| COc1ccc(-c2nc3ccncc3c(=O)n2CCOc2ccccc2)cc1 | > 100 µM (inactive) | – |
| Cc1c(CNC(=O)c2ccc(Cn3cc(Cl)c([N+](=O)[O-])n3)cc2)cnn1C | > 100 µM (inactive) | – |
| C=CCOCC1Cn2nc([N+](=O)[O-])nc2O1 (configuration not stated) | > 100 µM (inactive) | – |
| Clc1ccc(C(CC2CCCCO2)Cn2cncn2)c(Cl)c1 (configuration not stated) | > 100 µM (inactive) | – |
| COc1ccc(S(=O)(=O)Nc2ccccc2OC)cc1NC(=O)CCCc1c[nH]c2ccccc12 | > 100 µM (inactive) | – |
| CN(C)S(=O)(=O)c1ccc(Cl)c(C(=O)Nc2nc(-c3ccccn3)cs2)c1 | > 100 µM (inactive) | – |
| CC1CN(Cc2ccc(C#N)cc2)CCN1c1ccc(NC(=O)c2ccccc2F)cc1 (configuration not stated) | > 100 µM (inactive) | – |
| N#Cc1cnc(Nc2cccc(CCN3CCOCC3)c2)nc1Nc1ccccc1C(N)=O | – | 4.60 |
| CN(Cc1nc2ccccc2s1)C(=O)C=Cc1cc2ccccc2o1 | > 100 µM (inactive) | – |
| CCC(CC)C(=O)Nc1ccc(-c2nnc(-c3ccc(OC)cc3)o2)cc1 | > 100 µM (inactive) | – |
| c1cc(-c2ncc(-c3ccn[nH]3)s2)ccn1 | > 100 µM (inactive) | – |
| Cc1cccc(Nc2nc(-c3ccccn3)cs2)n1 | – | 4.40 |

| SMILES | IC50 | pIC50 |
| --- | --- | --- |
| Cc1cc(Br)sc1CNCCCNc1cc(=O)c2ccccc2[nH]1 | – | 4.40 |
| CC(Cn1ccnc1)NC(=O)COc1ccc(Cl)c(Cl)c1 (configuration not stated) | > 100 µM (inactive) | – |
| CCN(CC)c1ccc(S(=O)(=O)N(CC)CC)c2nonc12 | > 100 µM (inactive) | – |
| Cc1cc(Oc2cc(Cl)c(Cl)cc2Cl)n2ncnc2n1 | – | 4.49 |
| Cc1[nH]nc2c1C(c1ccc(OCc3ccccc3F)cc1)SCC(=O)N2 (configuration not stated) | > 100 µM (inactive) | – |
| CCN(CC)S(=O)(=O)c1ccc(Cn2nc(C(=O)Nc3ccncn3)c3ccccc32)cc1 | > 100 µM (inactive) | – |
| NS(=O)(=O)c1ccc(Nc2nccc(-c3cnn4ncccc34)n2)cc1 | > 100 µM (inactive) | – |
| Cc1cc(C)nc(N2CCC(N(Cc3cccnc3)C(=O)c3cccc(C#N)c3)CC2)n1 | > 100 µM (inactive) | – |
| Cc1ccc(Nc2nc(-c3ccccn3)cc(N3CCCC(O)C3)n2)cc1 (configuration not stated) | – | 4.40 |
| CCCc1nc2nc(N)nc(N)c2cc1CC | – | 4.70 |
| O=C(CN(Cc1ccccn1)Cc1ccccn1)NCc1csc(-c2cccs2)n1 | > 100 µM (inactive) | – |
| COc1ccc(C2=NCC(CSc3nnc(-c4ccc5c(c4)OCO5)o3)S2)cc1 (configuration not stated) | > 100 µM (inactive) | – |
| COc1ccc(S(=O)(=O)Nc2ccc(C(=O)Nc3nc(-c4ccccn4)cs3)cc2)cc1 | – | 4.20 |
| COc1ccc(C(C)(C)C)cc1S(=O)(=O)n1ccnc1 | > 100 µM (inactive) | – |
| O=C(Nc1nc2ccccc2[nH]1)c1ccc2nc[nH]c2c1 | – | 4.30 |
| Cc1nc2nc(C)c(Cc3ccc(C(C)C)cc3)c(=O)n2[nH]1 | > 100 µM (inactive) | – |
| CCNc1cc(-c2ccccn2)nc(Nc2ccccc2)n1 | – | 4.60 |
| CNC(=O)C1Cc2ccccc2N1C(=O)Cc1ccc(OC)cc1 (configuration not stated) | > 100 µM (inactive) | – |
| Cn1cc(CN2CCN(c3ccc4c(c3)CCN(C(=O)[C@H]3C[C@@H]3c3ccccc3)CC4)CC2)cn1 | – | 4.30 |
| c1ccc2sc(Nc3nc4ncccc4[nH]3)nc2c1 | – | 4.70 |
| COCCn1c(-c2ccccc2)cnc1NCc1ccccc1OC | – | 4.70 |
| CC(c1ccccn1)N(C)Cc1nc2ccccc2n1C(C)C (configuration not stated) | – | 4.60 |
| COc1ccc(C(C)N(C)c2ncc3c(N)nc(N)nc3n2)cc1F (configuration not stated) | > 100 µM (inactive) | – |
| COc1cccc(C(=O)[C@H]2C[C@@H]2CN(Cc2ccccn2)Cc2ccccn2)c1 | > 100 µM (inactive) | – |
| CS(=O)(=O)c1ccccc1C(=O)N(Cc1ccccc1)c1ccccc1 | > 100 µM (inactive) | – |
| N#Cc1cccc(Nc2nccc(N3CCC(NS(=O)(=O)c4cccc(C#N)c4)CC3)n2)c1 | – | 4.30 |

| SMILES | IC50 | pIC50 |
| --- | --- | --- |
| COc1ccc(NS(=O)(=O)c2cc(NC(=O)Cc3ccc(C)cc3)ccc2N2CCOCC2)cc1 | > 100 µM (inactive) | – |
| Clc1ccc(Sc2cnccc2N2CCOCC2)cc1 | > 100 µM (inactive) | – |
| O=C(NCCNc1noc(-c2ccc([N+](=O)[O-])cc2)n1)c1ccc(Cl)cc1 | > 100 µM (inactive) | – |
| CCCn1c(NC(=O)CCn2cc(Br)cn2)nc2ccccc21 | > 100 µM (inactive) | – |
| CCOC(=O)c1cn[nH]c1S(=O)(=O)N1CCC1c1ccccc1 (configuration not stated) | > 100 µM (inactive) | – |
| CN(Cc1nc2c(C(=O)N3CCN(Cc4ccccc4)CC3)cccc2[nH]1)C1CCCc2cccnc21 (configuration not stated) | – | 4.89 |
| O=C(Nc1ccccc1)Nc1nc(-c2ccccn2)cs1 | – | 4.60 |
| O=C(CSc1nnc2ccc(-c3ccc(F)cc3)nn12)N1CCCCC1 | > 100 µM (inactive) | – |
| CC(CNS(=O)(=O)c1ccc(OC(F)F)cc1)c1ccc(NC(=O)c2ccncc2)cc1 (configuration not stated) | – | 4.00 |
| NC(=O)c1ncccc1Nc1nc(NC2CCC(O)CC2)ncc1Br (configuration not stated) | > 100 µM (inactive) | – |
| Oc1cccnc1-c1n[nH]c(Cc2ccccc2)n1 | – | 4.10 |
| C[C@@H](Oc1cc(-n2cnc3ccc(CC(O)CO)cc32)sc1C(N)=O)c1ccccc1Cl (some centres not stated) | > 100 µM (inactive) | – |
| CN(C(=O)Nc1ccc2c(c1)CCN(C1CCC1)CC2)c1ccc(C#N)cc1 | > 100 µM (inactive) | – |
| N#Cc1nc(C=Cc2ccccc2)oc1NCc1cccnc1 | > 100 µM (inactive) | – |
| O=C(NCc1ccc(-n2cccc2)cc1)c1nc(Cn2ccc([N+](=O)[O-])n2)no1 | > 100 µM (inactive) | – |
| O=S(=O)(c1cccc(CSc2nnc(-c3ccc4c(c3)OCO4)o2)c1)N1CCOCC1 | > 100 µM (inactive) | – |
| NS(=O)(=O)c1ccc(Nc2ncc3cccc(OC4CCNCC4)c3n2)cc1 | > 100 µM (inactive) | – |
| COc1ccc(C2CC(c3ccccc3Cl)=NN2C(=O)CNC(=O)C2CCCC2)cc1 (configuration not stated) | > 100 µM (inactive) | – |
| Cc1cn[nH]c1C1CCCN(Cc2nc3ccccc3n2C)C1 (configuration not stated) | – | 4.30 |
| O=C(Nc1nc(-c2ccccn2)cs1)C1CCc2ccccc2C1 (configuration not stated) | – | 4.40 |
| O=c1[nH]ccc2ccc(-c3ccncc3)cc12 | > 100 µM (inactive) | – |
| COc1ccc2nccc([C@H](O)CN3CC[C@H](NC(=O)c4ccc(Br)cc4)[C@@H](O)C3)c2n1 | > 100 µM (inactive) | – |
| O=C(Nc1nc2cc(Cl)ccc2o1)c1cccc(Cl)c1 | > 100 µM (inactive) | – |
| COc1ccccc1-n1c(SCC(=O)Nc2ccc3c(c2)OCO3)nc2c(c1=O)SCC2 | > 100 µM (inactive) | – |
| N#Cc1cc(-c2ccnc(Nc3cccc(CN4CCOCC4)c3)n2)ccc1NCCN | – | 4.30 |
| Oc1c(-c2n[nH]c(Cc3ccc(F)cc3)n2)ncc2cccnc12 | – | 4.60 |

| SMILES | IC50 | pIC50 |
| --- | --- | --- |
| COCc1cc(Nc2cccc(Cl)c2)nc(-c2ccccn2)n1 | – | 4.40 |
| Cc1cccc(NS(=O)(=O)c2cnc3sc(C)cn3c2=O)c1 | > 100 µM (inactive) | – |
| Fc1ccccc1N1C[C@H]2CCN(c3cccnc3)C[C@H]2C1 | > 100 µM (inactive) | – |
| NC(=O)c1ccsc1NC(=O)c1ccc([N+](=O)[O-])s1 | > 100 µM (inactive) | – |
| CCC(=O)Nc1ccc(C(=O)Nc2ccccc2-c2ccccc2)cc1 | > 100 µM (inactive) | – |
| O=C(NCCc1nc(-c2ccc(F)c(F)c2)n[nH]1)C1CCCCC1 | > 100 µM (inactive) | – |
| Cc1ccccc1NS(=O)(=O)c1ccc2[nH]cc(C(=O)NC3CCCC(C)C3C)c(=O)c2c1 (configuration not stated) | – | 4.40 |
| c1ccc(CNc2cccc3ccncc23)cc1 | > 100 µM (inactive) | – |
| O=C(Cn1cnc2c(-c3ccccc3)csc2c1=O)N1CCCCC1 | > 100 µM (inactive) | – |
| O=C(NC1C(=O)N(c2ccccc2)C1c1cccnc1)c1ccc(Cl)s1 (configuration not stated) | > 100 µM (inactive) | – |
| O=C(NCc1nnc2n1CCCCC2)c1ccc(-c2ccc(F)cc2)o1 | > 100 µM (inactive) | – |
| COc1ccc(C2CC(c3ccccc3Cl)=NN2C(=O)CNC(=O)C2CCC2)cc1 (configuration not stated) | > 100 µM (inactive) | – |
| COc1cccc(CCNC(=O)C(c2cn[nH]c2)N2CCN(c3ccc(Cl)cc3)CC2)c1 (configuration not stated) | – | 4.30 |
| Cc1[nH]nc(Nc2ccnc3[nH]ccc23)c1C | > 100 µM (inactive) | – |
| COc1ccc(-c2cc(C)no2)cc1S(=O)(=O)Nc1ccc(C)c(C)c1 | > 100 µM (inactive) | – |
| O=C(NCC(c1cccnc1)N1CCc2ccccc2C1)C(=O)Nc1cccc(Cl)c1 (configuration not stated) | > 100 µM (inactive) | – |
| CCC(CC)C(=O)Nc1cccc(C(=O)Nc2nnc(C3CCCCC3)s2)c1 | > 100 µM (inactive) | – |
| c1ccc(-c2nc(NC3CCCCC3)cc(C3CC3)n2)nc1 | – | 4.40 |
| CC(C)(C)c1cc(NC2CC2)nc(-c2ccccn2)n1 | > 100 µM (inactive) | – |
| CN(C)Cc1ccc(N2CCC(NS(=O)(=O)c3ccc(Cl)cc3)CC2)cc1 | – | 4.30 |
| O=c1ccc2ccc(F)c3c2n1C[C@H]3CN1CCC(NCc2cc3ccccc3o2)CC1 | – | 4.40 |
| CC(C)(C)Nc1nc(Nc2ccc3c(c2)CS(=O)(=O)C3)nc2[nH]ccc12 | – | 4.49 |
| CC(C)(C)Nc1nc(-c2ccccn2)nc2ccccc12 | – | 4.70 |
| CCN(Cc1ccncc1)Cc1ccc(NC(=O)c2cc(-c3ccc(F)cc3)n[nH]2)cc1 | > 100 µM (inactive) | – |
